Experimental data reported in patent publication US20240018161A1, “MODULATORS OF CYSTIC FIBROSIS TRANSMEMBRANE CONDUCTANCE REGULATOR” (VERTEX PHARMACEUTICALS INCORPORATED, priority 2020, published 2024).
Where two headings read alike, the source gives them in different places. One block for each compound: values may come before it.

Legend:
[1] = 13-membered ring, DMF
[2] = 13-membered ring, DMF; remark: listed apart in the source
[3] = biological target: T1, CFTR-mediated chloride transport in human intestinal epithelial enteroid cells (Homo sapiens, UniProt P13569); experiment: Membrane potential dye, Enteroid Assay B; type: cell-based; conditions: Enteroid Assay B; for EC50: read-out: Ent. B EC50
T1 sequence (P13569 with tags, fused parts or gaps DEL508-508): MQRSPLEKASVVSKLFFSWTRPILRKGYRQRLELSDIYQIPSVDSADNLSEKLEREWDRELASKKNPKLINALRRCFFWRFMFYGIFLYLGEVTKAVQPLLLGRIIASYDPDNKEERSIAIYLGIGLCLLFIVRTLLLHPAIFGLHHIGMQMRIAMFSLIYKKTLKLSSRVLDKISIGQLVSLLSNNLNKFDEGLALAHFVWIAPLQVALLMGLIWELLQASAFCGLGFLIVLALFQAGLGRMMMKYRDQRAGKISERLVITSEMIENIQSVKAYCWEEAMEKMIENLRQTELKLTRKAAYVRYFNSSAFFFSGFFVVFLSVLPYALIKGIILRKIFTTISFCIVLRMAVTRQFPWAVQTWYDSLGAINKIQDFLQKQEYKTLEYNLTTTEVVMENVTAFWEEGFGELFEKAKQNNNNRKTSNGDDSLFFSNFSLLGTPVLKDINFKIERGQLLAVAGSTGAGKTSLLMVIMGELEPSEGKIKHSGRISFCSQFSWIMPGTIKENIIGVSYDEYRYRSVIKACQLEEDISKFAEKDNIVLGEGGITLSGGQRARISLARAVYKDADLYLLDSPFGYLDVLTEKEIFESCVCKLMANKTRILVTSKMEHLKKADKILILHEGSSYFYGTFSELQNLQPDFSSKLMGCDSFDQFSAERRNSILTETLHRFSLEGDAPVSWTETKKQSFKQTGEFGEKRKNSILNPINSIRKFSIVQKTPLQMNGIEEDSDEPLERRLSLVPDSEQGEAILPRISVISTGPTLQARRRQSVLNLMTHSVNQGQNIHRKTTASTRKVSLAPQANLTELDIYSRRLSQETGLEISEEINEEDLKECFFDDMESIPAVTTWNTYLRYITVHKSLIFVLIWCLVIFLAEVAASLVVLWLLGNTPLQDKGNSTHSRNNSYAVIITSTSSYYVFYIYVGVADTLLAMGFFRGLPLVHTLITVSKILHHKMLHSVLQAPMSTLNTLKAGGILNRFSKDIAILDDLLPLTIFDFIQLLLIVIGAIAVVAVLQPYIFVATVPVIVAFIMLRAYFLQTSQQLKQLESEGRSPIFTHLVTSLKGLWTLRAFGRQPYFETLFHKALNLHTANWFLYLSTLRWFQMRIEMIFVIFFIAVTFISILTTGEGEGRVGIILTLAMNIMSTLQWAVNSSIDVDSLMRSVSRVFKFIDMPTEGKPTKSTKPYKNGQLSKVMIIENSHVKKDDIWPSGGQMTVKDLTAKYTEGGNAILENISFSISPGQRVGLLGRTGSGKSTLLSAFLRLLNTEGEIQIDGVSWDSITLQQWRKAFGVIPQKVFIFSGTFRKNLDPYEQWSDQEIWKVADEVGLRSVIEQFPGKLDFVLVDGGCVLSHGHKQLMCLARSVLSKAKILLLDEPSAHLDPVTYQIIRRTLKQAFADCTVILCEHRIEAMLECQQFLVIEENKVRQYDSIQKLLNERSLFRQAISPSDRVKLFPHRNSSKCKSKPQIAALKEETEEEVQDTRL
How it was run: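 After dye loading (20 μM methyl oxonol with 30 μM CaCCinh-A01 and 30 μM Chicago Sky Blue, 25 min at room temperature), enteroid cells were exchanged into chloride-free buffer. Fluorescence was recorded for 15 min after adding stimulation solution to drive CFTR-mediated chloride transport.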

[4] = biological target: T2, CFTR-mediated short-circuit current in F508del/MF-HBE cells (Homo sapiens, UniProt P13569, DEL508-508); experiment: HBE2 assay: Ussing chamber assay of CFTR-mediated short-circuit currents; type: cell-based
T2 construct: human bronchial epithelial (HBE) cells derived from CF subjects; endogenous in cells; host or cells: primary human bronchial epithelial cells from CF subjects (F508del/MF-HBE)
T2 sequence (P13569 with tags, fused parts or gaps DEL508-508): as above
Protocol: 1. Ussing Chamber Assay of CFTR-Mediated Short-Circuit Currents
Ussing chamber experiments were performed using human bronchial epithelial (HBE) cells derived from CF subjects heterozygous for F508del and a minimal function CFTR mutation (F508del/MF-HBE) and cultured as previously described (Neuberger T, Burton B, Clark H, Van Goor F Methods Mol Biol 2011:741:39-54). After four days the apical media was removed, and the cells were grown at an air liquid interface for >14 days prior to use.
To isolate the CFTR-mediated short-circuit (ISC) current, F508del/MF-HBE grown on Costar® Snapwell™ cell culture inserts were mounted in an Ussing chamber and the transepithelial ISC was measured under voltage-clamp recording conditions (Vhold=0 mV) at 37° C. The basolateral solution contained (in mM) 145 NaCl, 0.83 K2HPO4, 3.3 KH2PO4, 1.2 MgCl2, 1.2 CaCl2, 10 Glucose, 10 HEPES (pH adjusted to 7.4 with NaOH) and the apical solution contained (in mM) 145 NaGluconate, 1.2 MgCl2, 1.2 CaCl2, 10 glucose, 10 HEPES (pH adjusted to 7.4 with NaOH) and 30 μM amiloride to block the epithelial sodium channel. Forskolin (20 μM) was added to the apical surface to activate CFTR, followed by apical addition of a CFTR inhibitor cocktail consisting of BPO, GlyH-101, and CFTR inhibitor 172 (each at 20 μM final assay concentration) to specifically isolate CFTR currents. The CFTR-mediated ISC (μA/cm^2) for each condition was determined from the peak forskolin response to the steady-state current following inhibition.
2. Identification of Corrector Compounds
The activity of the CFTR corrector compounds on the CFTR-mediated ISC was determined in Ussing chamber studies as described above. The F508del/MF-HBE cell cultures were either incubated with the corrector compounds at a range of concentrations in combination with 44 nM (6R,12R)-17-amino-12-methyl-6,15-bis(trifluoromethyl)-13,19-dioxa-3,4,18-triazatricyclo[12.3.1.12,5]nonadeca-1(18),2,4,14,16-pentaen-6-ol or were incubated with the corrector compounds at a single fixed concentration of 1 and 3 μM in combination with 44 nM (6R,12R)-17-amino-12-methyl-6,15-bis(trifluoromethyl)-13,19-dioxa-3,4,18-triazatricyclo[12.3.1.12,5]nonadeca-1(18),2,4,14,16-pentaen-6-ol for 18-24 hours at 37° C. and in the presence of […]. The concentration of corrector compounds with 44 nM (6R,12R)-17-amino-12-methyl-6,15-bis(trifluoromethyl)-13,19-dioxa-3,4,18-triazatricyclo[12.3.1.12,5]nonadeca-1(18),2,4,14,16-pentaen-6-ol during the 18-24 hours incubations was kept constant throughout the Ussing chamber measurement of the CFTR-mediated ISC to ensure compounds were present throughout the entire experiment.

[5] = biological target: T1, CFTR-mediated chloride transport in human intestinal epithelial enteroid cells; experiment: Membrane potential dye, Enteroid Assay A; type: cell-based; conditions: Enteroid Assay A; for EC50: read-out: Ent. A EC50
How it was run: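 Membrane potential dye (20 μM methyl oxonol, with 30 μM CaCCinh-A01 and 30 μM Chicago Sky Blue) loaded 25 min at room temperature into ROCK-inhibitor-seeded human enteroid cells. Chloride-free stimulation buffer triggered transport, followed by 15 min fluorescence. % Activity relative to 3 μM/3 μM/300 nM triple-combination control.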

Structure (SMILES): Cc1cccc(C)c1-c1cc2nc(n1)NS(=O)(=O)c1cccc(c1)C(=O)N1C(c3ncc(OC(C)C)cn3)CCCC(CC(C)C)C1CO2 (stereo not drawn)
ring closure, isolated yield ([1]; from Cc1cccc(C)c1-c1cc(OCC2NC(c3ncc(OC(C)C)cn3)CCCC2CC(C)C)nc(NS(=O)(=O)c2cccc(C(=O)O)c2)n1, amide bond, CDMT/NMM, 14.3 mM, 48.0 h, 2 steps): 41%
ring closure, yield after HPLC ([2]; from Cc1cccc(C)c1-c1cc(OCC2NC(c3ncc(OC(C)C)cn3)CCCC2CC(C)C)nc(NS(=O)(=O)c2cccc(C(=O)O)c2)n1, amide bond, CDMT/NMM, 13.7 mM, 48.0 h, 2 steps): 12%

Structure (SMILES): Cc1cccc(C)c1-c1cc2nc(n1)NS(=O)(=O)c1cccc(c1)C(=O)N1CCN(Cc3ccccc3)CC(O2)C1CC(C)C (stereo not drawn)
ring closure, isolated yield ([1]; from Cc1cccc(C)c1-c1cc(Cl)nc(NS(=O)(=O)c2cccc(C(=O)N3CCN(Cc4ccccc4)CC(O)C3CC(C)C)c2)n1, snar bond, NaH, 15.6 mM, 25.0 °C, 23.0 h): 21%
ring closure, yield after HPLC ([2]; from Cc1cccc(C)c1-c1cc(Cl)nc(NS(=O)(=O)c2cccc(C(=O)N3CCN(Cc4ccccc4)CC(O)C3CC(C)C)c2)n1, snar bond, NaH, 15.2 mM, 25.0 °C, 24.0 h): 11%

Structure (SMILES): Cc1cccc(C)c1-c1cc2nc(n1)NS(=O)(=O)c1cccc(c1)C(=O)N1CCc3cc(C(C)(C)C)ccc3C1CO2 (single isomer, unassigned) [Compound 235, 8-tert-butyl-17-(2,6-dimethylphenyl)-14-oxa-21λ^6-thia-3,18,20,27-tetraazapentacyclo[20.3.1.115,19.03,12.06,11]heptacosa-1(26),6(11),7,9,15(27),16,18,22,24-nonaene-2,21,21-trione]
ring closure, isolated yield ([1]; from Cc1cccc(C)c1-c1cc(OCC2NCCc3cc(C(C)(C)C)ccc32)nc(NS(=O)(=O)c2cccc(C(=O)O)c2)n1, amide bond, HATU/Et3N, 16.5 mM, 25.0 °C, 16.0 h): 34%
Ent. B Max Activity (%) [3]: ++ (++ is 30-60%)
EC50 [3]: < 1 µM

Structure (SMILES): Cc1cccc(C)c1-c1cc2nc(n1)NS(=O)(=O)c1cccc(c1)C(=O)N1[C@@H](c3ncc(OC(C)C)cn3)CCC(C)(C)[C@H]1CO2 (single isomer, unassigned) [Compound 386, 13-(2,6-dimethylphenyl)-4-(5-isopropoxypyrimidin-2-yl)-7,7-dimethyl-17,17-dioxo-10-oxa-17λ^6-thia-3,14,16,23-tetrazatetracyclo[16.3.1.111,15.03,8]tricosa-1(21),11,13,15(23),18(22),19-hexaen-2-one]
HBE2 Activity at 3 μM (%) [4]: + (+ is <30+)

Structure (SMILES): Cc1cccc(C)c1-c1cc2nc(n1)NS(=O)(=O)c1cccc(c1)C(=O)N1[C@@H](c3ncc(OC(C)C)cn3)CCC(C)(C)[C@H]1CO2 (single isomer, unassigned) [Compound 387, 13-(2,6-Dimethylphenyl)-4-(5-isopropoxypyrimidin-2-yl)-7,7-dimethyl-17,17-dioxo-10-oxa-17λ^6-thia-3,14,16,23-tetrazatetracyclo[16.3.1.111,15.03,8]tricosa-1(21),11,13,15(23),18(22),19-hexaen-2-one]
HBE2 Activity at 3 μM (%) [4]: +++ (+++ is >60%)

Structure (SMILES): Cc1cccc(C)c1-c1cc2nc(n1)NS(=O)(=O)c1cccc(c1)C(=O)N1CC3CN(Cc4ccccc4)CC3(C1)O2 (stereo not drawn) [Compound 210, 20-Benzyl-5-(2,6-dimethylphenyl)-2-oxa-9λ^6-thia-6,8,16,20,24-pentaazapentacyclo[14.5.1.13,7.110,14.01,18]tetracosa-3(24),4,6,10,12,14(23)-hexaene-9,9,15-trione]
ring closure, isolated yield ([1]; from Cc1cccc(C)c1-c1cc(Cl)nc(NS(=O)(=O)c2cccc(C(=O)N3CC4CN(Cc5ccccc5)CC4(O)C3)c2)n1, snar bond, NaH, 33.1 mM, 25.0 °C, 24.0 h): 26%
Ent. A Max Activity (%) [5]: +++ (+++ is >600%)
EC50 [5]: < 1 µM

Continued, in another order:

Ent. A Max Activity (%) [5]: +++ (+++ is >600%)
EC50 [5]: < 1 µM
Structure (SMILES): Cc1cccc(C)c1-c1cc2nc(n1)NS(=O)(=O)c1cccc(c1)C(=O)N1C[C@@H](CN(C(=O)OC(C)(C)C)C[C@H]1C(C)C)O2 [Compound 124, tert-Butyl (16S,20R)-12-(2,6-dimethylphenyl)-2,8,8-trioxo-20-(propan-2-yl)-15-oxa-8λ^6-thia-1,9,11,18,22-pentaazatetracyclo[14.4.1.13,7.110,14]tricosa-3(23),4,6,10(22),11,13-hexaene-18-carboxylate]
ring closure, isolated yield ([1]; from Cc1cccc(C)c1-c1cc(Cl)nc(NS(=O)(=O)c2cccc(C(=O)N3C[C@H](O)CN(C(=O)OC(C)(C)C)C[C@H]3C(C)C)c2)n1, snar bond, NaH, 30.5 mM, 3.17 h): 35%

Ent. A Max Activity (%) [5]: ++ (++ is 30-60%)
EC50 [5]: < 1 µM
Structure (SMILES): Cc1cccc(C)c1-c1cc2nc(n1)NS(=O)(=O)c1cccc(c1)C(=O)N1C[C@@H](CN(C(=O)OC(C)(C)C)C[C@@H]1CCC(C)C)O2 [Compound 129, tert-Butyl (16S,20S)-12-(2,6-dimethylphenyl)-20-(3-methylbutyl)-2,8,8-trioxo-15-oxa-8λ^6-thia-1,9,11,18,22-pentaazatetracyclo[14.4.1.13,7.110,14]tricosa-3(23),4,6,10(22),11,13-hexaene-18-carboxylate]
ring closure, isolated yield ([1]; from Cc1cccc(C)c1-c1cc(Cl)nc(NS(=O)(=O)c2cccc(C(=O)N3C[C@H](O)CN(C(=O)OC(C)(C)C)C[C@@H]3CCC(C)C)c2)n1, snar bond, NaH, 29.8 mM, 3.67 h): 53%

Ent. A Max Activity (%) [5]: ++ (++ is 30-60%)
EC50 [5]: < 1 µM
Structure (SMILES): Cc1cccc(C)c1-c1cc2nc(n1)NS(=O)(=O)c1cccc(c1)C(=O)N1C[C@@H](CN(C(=O)OC(C)(C)C)C[C@@H]1C(C)C)O2 [Compound 132, tert-Butyl (16S,20S)-12-(2,6-dimethylphenyl)-2,8,8-trioxo-20-(propan-2-yl)-15-oxa-8λ^6-thia-1,9,11,18,22-pentaazatetracyclo[14.4.1.13,7.110,14]tricosa-3(23),4,6,10(22),11,13-hexaene-18-carboxylate]
ring closure, isolated yield ([1]; from Cc1cccc(C)c1-c1cc(Cl)nc(NS(=O)(=O)c2cccc(C(=O)N3C[C@H](O)CN(C(=O)OC(C)(C)C)C[C@@H]3C(C)C)c2)n1, snar bond, NaH, 29.4 mM, 3.17 h): 46%

Ent. A Max Activity (%) [5]: ++ (++ is 30-60%)
EC50 [5]: < 1 µM
Structure (SMILES): Cc1cccc(C)c1-c1cc2nc(n1)NS(=O)(=O)c1cccc(c1)C(=O)N1C[C@@H](CN(C(=O)OC(C)(C)C)C[C@@H]1CC(C)(C)C)O2 [Compound 134, tert-Butyl (16S,20S)-12-(2,6-dimethylphenyl)-20-(2,2-dimethylpropyl)-2,8,8-trioxo-15-oxa-8λ^6-thia-1,9,11,18,22-pentaazatetracyclo[14.4.1.13,7.110,14]tricosa-3(23),4,6,10(22),11,13-hexaene-18-carboxylate]
ring closure, isolated yield ([1]; from Cc1cccc(C)c1-c1cc(O[C@H]2CN[C@@H](CC(C)(C)C)CN(C(=O)OC(C)(C)C)C2)nc(NS(=O)(=O)c2cccc(C(=O)O)c2)n1, amide bond, HATU/DIEA, 29.2 mM, 25.0 °C, 0.33 h): 57%

Ent. B Max Activity (%) [3]: +++ (+++ is >600%)
EC50 [3]: < 1 µM
Structure (SMILES): Cc1cccc(C)c1-c1cc2nc(n1)NS(=O)(=O)c1cccc(c1)C(=O)N1C[C@@H](CCC1CC(C)C)O2 (stereo partly drawn) [Compound 234, (3R)-18-(2,6-Dimethylphenyl)-6-(2-methylpropyl)-2-oxa-14λ^6-thia-7,15,17,20-tetraazatetracyclo[14.3.1.13,7.19,13]docosa-1(20),9(21),10,12,16,18-hexaene-8,14,14-trione]
ring closure, isolated yield ([1]; from Cc1cccc(C)c1-c1cc(Cl)nc(NS(=O)(=O)c2cccc(C(=O)N3C[C@H](O)CCC3CC(C)C)c2)n1, snar bond, NaH, 11.6 mM, 25.0 °C, 16.0 h): 38%
